Experimental data from US5066655A (priority 1989, dated 1991).

Legend:
[1] = target: T1, A1 adenosine receptor (guinea pig atrium) (Cavia porcellus, UniProt P47745); assay: Antagonism of adenosine agonists in isolated guinea pig left atrium (force of contraction); settings: for antagonism of adenosine agonists in atria: guinea pig atria, result in words
T1 construct: The left atria from male guinea pigs were isolated; from tissue; host or cells: left atria of male guinea pigs
T1 sequence (P47745 1-326): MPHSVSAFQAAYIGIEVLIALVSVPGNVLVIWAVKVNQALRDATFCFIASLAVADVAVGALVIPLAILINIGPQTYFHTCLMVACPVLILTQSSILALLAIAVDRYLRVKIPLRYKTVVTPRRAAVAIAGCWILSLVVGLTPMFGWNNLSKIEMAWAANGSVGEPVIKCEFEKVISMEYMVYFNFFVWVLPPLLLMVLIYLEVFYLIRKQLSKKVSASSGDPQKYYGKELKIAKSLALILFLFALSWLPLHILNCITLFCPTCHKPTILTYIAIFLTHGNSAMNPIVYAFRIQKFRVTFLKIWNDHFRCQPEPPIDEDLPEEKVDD
Protocol: The left atria from male guinea pigs were isolated, suspended between two punctate electrodes, and placed in a 20 ml organ bath that contained Krebs-Hensileit solution that was continuously gassed with 95% O2 + 5% CO2 and maintained at 31° C. The resting tension was one gram. Theatria were stimulated electrically at 1 hz, 1 ms duration pulses at supramaximal voltage. The force of contraction was recorded isometrically.
(§1) The ability of the compounds to antagonize the effects of agonists was analyzed using modified Schild plots.

[2] = system: A2 adenosine receptor (guinea pig taenia caecum); assay: Antagonism of adenosine agonists in isolated guinea pig taenia caecum (contractile tone); settings: for antagonism of adenosine agonists in taenia caecum: guinea pig taenia caecum relaxation; for sensitization of the tissue: guinea pig taenia caecum, high concentrations
Protocol: Taenia from the guinea pig caecum were cut into lengths of 1.5-2 cm. The tissues were suspended in a 20 ml organ bath containing de Jalon's solution that was gassed with 95% O2 + 5% CO2 and maintained at 31° C. The resting tension was 1.5 g. The contractile response was measured isotonically.
as §1

[3] = system: adenosine receptors (A1: heart rate; A2: blood pressure); assay: In vivo test on heart rate, blood pressure and ECG in anesthetized rats; design: species or system rat
Excerpt: Drug injections were made intravenously through a jugular cannula.

[4] = system: coronary A2 receptors; settings: cited from earlier work
[5] = target: T2, A1 receptors of rat fat cells (Rattus norvegicus, UniProt P25099); assay: Antagonism of R-PIA-induced inhibition of rat fat cell adenylate cyclase activity; type: biochemical; settings: rat fat cell membranes, result in words
T2 sequence (P25099 1-326): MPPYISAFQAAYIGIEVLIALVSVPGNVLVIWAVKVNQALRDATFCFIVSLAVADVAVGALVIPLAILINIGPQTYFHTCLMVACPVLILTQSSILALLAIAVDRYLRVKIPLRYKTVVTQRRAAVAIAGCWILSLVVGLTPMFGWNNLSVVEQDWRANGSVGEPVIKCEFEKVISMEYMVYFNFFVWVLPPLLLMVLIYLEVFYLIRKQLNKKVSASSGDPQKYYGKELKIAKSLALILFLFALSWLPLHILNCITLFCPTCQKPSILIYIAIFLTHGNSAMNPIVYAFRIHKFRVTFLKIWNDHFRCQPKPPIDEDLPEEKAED
Protocol: (§2) Human platelet, rat pheochromocytoma (PC12) cell, rat fat cell and rat cerebral cortex membranes were prepared as described (4,5,6). Adenylate cyclase activity and binding [^3 H]PIA to cerebral cortex membranes were determined essentially as described (4,5,6). KB values for the compounds were determined as described (4). […] EC50 and IC50 values for the agonists were obtained from the concentration-response curves by linear regression after logit-log transformation. KB values of the antagonists were calculated using the Schild equation KB =C/(CR-1), where C denotes the concentration of the competitor and CR the ratio of the EC50 and IC50 values in the presence and absence, respectively, of the competitor. IC50 of the compounds for inhibition of [^3 H]PIA binding to cerebral cortex membranes were transformed into Ki values as described (6).

[6] = system: adenosine receptor in human fibroblast cell line; settings: cited from earlier work
[7] = target: T3, A2 receptors of human platelets (Homo sapiens, UniProt P29274); assay: Antagonism of NECA-induced stimulation of adenylate cyclase activity of human platelet membranes; type: biochemical; settings: for antagonist potency at platelet A2 receptor: human platelet membranes, NECA-stimulated adenylate cyclase, result in words
Protocol: as §2
In these cells, A2 receptor-mediated stimulation of adenylate cyclase results in an inhibition of aggregation (5,7).

[8] = system: A2 receptors of rat pheochromocytoma (PC12) cells; assay: Antagonism of NECA-induced stimulation of adenylate cyclase activity of PC12 cell membranes; type: biochemical; settings: NECA-stimulated adenylate cyclase, result in words
Protocol: as §2

[9] = system: A1 and A2 adenosine receptors; assay: Activity at adenosine receptors, A1 versus A2 selectivity (overall); type: biochemical; settings: in words
Protocol: as §2

[10] = target: T4, A1 receptors (Rattus norvegicus, UniProt P25099); assay: Activity at A1 adenosine receptors (overall, fat cells and brain membranes); type: biochemical; settings: discussion, fat cell and brain data
T4 sequence (P25099 1-326): T2 sequence (P25099 1-326)
Protocol: as §2

[11] = target: T5, A1 receptors of rat cerebral cortex membranes (Rattus norvegicus, UniProt P25099); assay: Inhibition of [3H]PIA binding to rat cerebral cortex membranes
T5 sequence (P25099 1-326): T2 sequence (P25099 1-326)
Protocol: as §2

[12] = system: A2 receptors; settings: literature; cited from earlier work
[13] = target: T3, A2 receptors of human platelets; settings: cited from earlier work
[14] = system: A1 adenosine receptors; settings: literature; cited from earlier work
[15] = system: A2 receptors of PC12 cells; settings: cited from earlier work

T3 sequence (P29274 whole entry): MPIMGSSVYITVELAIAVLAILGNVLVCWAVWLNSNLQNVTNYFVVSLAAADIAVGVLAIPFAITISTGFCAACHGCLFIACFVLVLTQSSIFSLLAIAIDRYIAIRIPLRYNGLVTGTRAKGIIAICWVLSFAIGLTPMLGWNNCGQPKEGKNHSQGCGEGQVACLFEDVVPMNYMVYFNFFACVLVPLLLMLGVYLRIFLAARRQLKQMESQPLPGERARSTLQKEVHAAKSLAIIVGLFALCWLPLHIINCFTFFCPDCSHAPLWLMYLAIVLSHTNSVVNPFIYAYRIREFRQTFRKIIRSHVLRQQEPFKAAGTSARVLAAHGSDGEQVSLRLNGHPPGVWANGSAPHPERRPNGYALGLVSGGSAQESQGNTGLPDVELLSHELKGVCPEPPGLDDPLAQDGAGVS

For `Cn1cnc2c(N[C@H]3C[C@H]4CC[C@@H]3C4)ncnc21` (relative stereo) [Example 22, N^6-(endonorbornyl)-9-MA], the “antagonism of adenosine agonists in atria” value (“antagonism … in atria” below) [1] was “competitive antagonists”, the “antagonism … in atria” value ([1]; listed as Ex. 22) was “most potent antagonist” and the Kb ([1]; read-out: Affinity constants (pKB) (converted)) was 525 nM. The “antagonism of adenosine agonists in taenia caecum” value [2] was “did not competitively antagonize the effects of adenosine agonists”, the “sensitization of the tissue” value [2] was “some sensitization of the tissue” and the cardioselectivity in vivo [3] was “cardioselective adenosine receptor antagonist in vivo”. The “effect on adenosine-induced changes of blood pressure, heart rate and P-R interval” value ([3]; i.v.) was “attenuated the effects of subsequently administered adenosine on all parameters measured”, the “effect on adenosine-induced heart block” value ([3]; i.v., high doses of adenosine) was “substantially reduced” and the “effect on NECA action on the heart” value ([3]; i.v., prior administration) was “attenuated the effects of NECA on the heart”. For the same molecule, the “effect on NECA-induced decrease in blood pressure” value ([3]; i.v., prior administration) was “minimally affecting the NECA-induced decrease in blood pressure”.
In the case of `OC[C@H]1O[C@@H](n2cnc3c(Oc4ccccc4)ncnc32)[C@H](O)[C@@H]1O` [6-phenoxypurine riboside], the “activity at coronary A2 receptors” value [4] is given as “inactive or nearly so”.
In the case of `Nc1ncnc2nc[nH]c12` [Example 1, Adenine, reference compound], the “antagonist potency at A1 receptors of fat cells” value [5] is given as “does not affect R-PIA-induced inhibition of fat cell adenylate cyclase activity”, the “specific, competitive antagonism of cyclic AMP accumulation” value ([6]; adenosine-induced, human fibroblast cell line) is given as “specific, competitive antagonist” and the Ki ([6]; competitive antagonism of adenosine-induced cyclic AMP accumulation, human fibroblast cell line) is given as 200 µM. For the same molecule, the “antagonist potency at platelet A2 receptor” value [7] was “very weak antagonist”, the “effect on basal adenylate cyclase activity” value ([7]; human platelets, data not shown) was “does not affect basal adenylate cyclase activity” and the “antagonist potency at A2 receptor of PC12 cells” value [8] was “very weak antagonist”.
In the case of `Cn1cnc2c(N)ncnc21` [Example 2, 9-Methyladenine, reference compound], the “antagonist potency at A1 receptors of fat cells” value [5] is given as “antagonizes the effect of R-PIA”, the “potency increase by methylation of adenine at the 9-position” value ([6]; relative to adenine) is given as “about 4 fold” and the “antagonist potency at platelet A2 receptor” value [7] is given as “more potent than the adenine itself”.
With `Cn1cnc2c(NC3CCCC3)ncnc21` [Example 4, N^6 -Cyclopentyl-9-MA] the “potency at adenosine receptors (subtype not stated)” value [9] was “more potent than 9-methyladenine”, the “receptor selectivity A1 versus A2” value ([9]; listed as N^6 -Cyclopentyl) was “selective for A1 receptors” and the “receptor selectivity A1 versus A2” value ([9]; listed as cyclopentyl-) was “selective for receptors”. For the same molecule, the “activity at A1 receptors, in words” value [10] was “most potent of N^6 -substituted 9-methyladenines at A1 receptors”, the “antagonism … in atria” value [1] was “competitive antagonists” and the “antagonist potency at A1 receptors of fat cells” value [5] was “more potent than the parent compound 9-methyladenine”. The “inhibition of [3H]PIA binding (Ki), in words” value [11] was “more potent”, the “antagonism of adenosine agonists in taenia caecum” value [2] was “did not competitively antagonize the effects of adenosine agonists” and the “sensitization of the tissue” value [2] was “some sensitization of the tissue”. The “antagonist potency at platelet A2 receptor” value [7] was “more potent than 9-methyladenine itself” and the “potency at platelet A2 receptor relative to PC12 A2 receptor” value ([7]; human platelets versus rat PC12 cells) was “more potent at the platelet A2 receptor than at the PC12 A2 receptor”.
In the case of `Cn1cnc2c(NC3(C)CCCC3)ncnc21` [Example 5, N^6 -Methylcyclopentyl-9-MA], the “receptor selectivity A1 versus A2” value [9] is reported as “selective for receptors”, the “activity at A1 receptors, in words” value [10] is reported as “reduces activity at A1 receptors” and the “antagonist potency at A1 receptors of fat cells” value [5] is reported as “less potent”. For the same molecule, the “antagonist potency at platelet A2 receptor” value [7] was “less potent than the parent cyclopentyl analog” and the “antagonist potency at A2 receptor of PC12 cells” value [8] was “reduces potency in PC12 cells”.
For `CCNC(=O)[C@H]1O[C@@H](n2cnc3c(N)ncnc32)[C@H](O)[C@@H]1O` [NECA, 5'-N-ethylcarboxamido-adenosine], the “potency at A2 receptors, in words” value [12] is listed as “more potent than N^6 -substituted analogs at A2 receptors”.
For `OC[C@H]1O[C@@H](n2cnc3c(NCc4ccccc4)ncnc32)[C@H](O)[C@@H]1O` [N^6 -benzyladenosine], the “agonist potency at platelet A2 receptors, in words” value [13] is given as “more potent of the N^6 -substituted adenosines” and the “affinity/activity at A1 receptors, in words” value (“affinity/activity” for short) [14] is given as “low activity”.
In the case of `OC[C@H]1O[C@@H](n2cnc3c(NC4CCC4)ncnc32)[C@H](O)[C@@H]1O` [N^6 -cyclobutyl-], the “agonist potency at platelet A2 receptors, in words” value [13] is listed as “more potent of the N^6 -substituted adenosines” and the “agonist potency at PC12 A2 receptors, in words” value [15] is listed as “more potent of the series”.
For `CNc1ncnc2c1ncn2[C@@H]1O[C@H](CO)[C@@H](O)[C@H]1O` [N^6 -methyladenosine], the “affinity/activity” value [14] is listed as “low activity”.
For `OC[C@H]1O[C@@H](n2cnc3c(NCCc4ccsc4)ncnc32)[C@H](O)[C@@H]1O` [N^6-2-(3-thienylethyl)-], the “agonist potency at platelet A2 receptors, in words” value [13] is given as “more potent of the N^6 -substituted adenosines”.
For `CC1(Nc2ncnc3c2ncn3[C@@H]2O[C@H](CO)[C@@H](O)[C@H]2O)CCCC1` [N^6-(1-methylcyclopentyl)adenosine], the “affinity/activity” value [14] is given as “reduced compared to N^6 -cyclopentyladenosine”.
In the case of `C[C@H](Cc1ccccc1)Nc1ncnc2c1ncn2[C@@H]1O[C@H](CO)[C@@H](O)[C@H]1O` [R-PIA, N^6 -R-1-phenyl-2-propyladenosine], the “agonist potency at platelet A2 receptors, in words” value [13] is listed as “more potent of the N^6 -substituted adenosines”, the “agonist potency at PC12 A2 receptors, in words” value [15] is listed as “more potent of the series” and the “affinity/activity” value [14] is listed as “very high affinity for A1 adenosine receptors”.
